From ChEMBL document CHEMBL1150922, “A new photosystem II electron transfer inhibitor from Sorghum bicolor” (J Nat Prod, 1998)
The source made the active and inactive calls. No cut-off for these calls is given here.

Columns and labels:
Spinacia oleracea = test: Reduction in light-induced chlorophyll fluorescence half-life in spinach thylakoids membrane at 0.3 to 1 uM; type: functional, cell membranes
Lactuca sativa [1] = test: Phytotoxicity against lettuce seedlings assessed as inhibition of seed germination at >0.3 mM after 4 days; type: functional, organism-based
Lactuca sativa [2] = test: Phytotoxicity against lettuce seedlings assessed as inhibition of seed germination at 0.1 mM after 4 days; type: functional, organism-based
[3] = Inhibition of photosystem 2 in spinach thylakoid membranes assessed as oxygen evolution; type: cell membranes, Spinacia oleracea; conditions: read-out: I50

SMILES | Activity (Spinacia oleracea) | Activity (Lactuca sativa [1]) | Activity (Lactuca sativa [2]) | IC50 [3] [nM]
C=CC/C=C\C/C=C\CCCCCCCC1=C(OC)C(=O)C=C(OC)C1=O | Active | Active | inactive | 280
CCNc1nc(Cl)nc(NC(C)C)n1 [ATRAZINE] | Active | Active | inactive | 930
C=CC/C=C\C/C=C\CCCCCCCC1=C(O)C(=O)C=C(OCC)C1=O | Active | Active | inactive | 1070
C=CC/C=C\C/C=C\CCCCCCCC1=C(O)C(=O)C=C(OC)C1=O [SORGOLEONE] | Active | Active | inactive | 100
